US20110092456A1, “Methods of increasing cAMP levels and uses thereof” (priority 2009, published 2011)

Key:
Protein Kinase A (PKA) = experiment: Myocardial PKA activity, mouse; format: in vivo
Procedure: Protocol 1: Mice received 3-day pretreatment with: 1) SIT (300 mg/kg per day); 2) PIO (5 mg/kg per day); 3) SIT+PIO; or water alone (control). Drugs were suspended in water and administered by oral gavage once daily. […] One hour after injection, mice underwent coronary artery ligation for 30 minutes followed by 4-hour reperfusion, or mice were euthanized under anesthesia and hearts were explanted without being subjected to ischemia.

eNOS = experiment: Immunoblotting of myocardial eNOS, mouse; format: in vivo
Procedure: (§1) Protocol 1: Mice received 3-day pretreatment with: 1) SIT (300 mg/kg per day); 2) PIO (5 mg/kg per day); 3) SIT+PIO; or water alone (control). Drugs were suspended in water and administered by oral gavage once daily. On the 4th day, mice received intravenous H-89 (20 mg/kg) or vehicle (5% DMSO) (40). One hour after injection, mice underwent coronary artery ligation for 30 minutes followed by 4-hour reperfusion, or mice were euthanized under anesthesia and hearts were explanted without being subjected to ischemia. For immunoblotting and enzyme activity, hearts were rinsed in cold PBS (pH 7.4), containing 0.16 mg/ml heparin to remove red blood cells and clots, frozen in liquid nitrogen and stored at −80° C. for further analyses.
(§2) Myocardial samples from the risk zone of the anterior wall of the left ventricular wall exposed to ischemia-reperfusion (IR), or from the anterior wall of control hearts not exposed to ischemia were homogenized in lysis buffer (in mMol): 25 Tris.HCl (pH 7.4), 0.5 EDTA, 0.5 EGTA, 1 phenylmethylsulfonyl 193 fluoride, 1 dithiothreitol, 25 NaF, 1 Na3VO4, 1% Triton X-100, 2% SDS and 1% 194 protease inhibitor cocktail. The lysate was centrifuged at 10,000 g for 15 min at 4° C. The resulting supernatants were collected. Protein (50 μg) was fractionated by SDS-PAGE (4%-20% polyacrylamide gels) and transferred to PVDF membranes (Millipore, Bedford, Mass.). The membranes were incubated overnight at […] with primary antibodies. Bound antibodies were detected using the chemiluminescent substrate (NEN Life Science Products, Boston, Mass.). The protein signals were quantified 200 with an image-scanning densitometer, and the strength of each 201 protein signal was normalized to the corresponding β-actin signal. Data are expressed as percent of the expression in the 202 control group.

[1] = system: coronary artery ligation for 30 minutes followed by 4-hour reperfusion; experiment: Mouse coronary artery ligation/reperfusion infarct size; format: in vivo; conditions: for IS, expressed as a percent of the left ventricle or a percent of the area at risk: words
Procedure: as §1
Protocol 2: Mice received 14-day pretreatment with: 1) SIT (300 mg/kg per day); 2) PIO (5 mg/kg per day); 3) SIT+PIO; or water alone (control), as above. Mice underwent coronary artery ligation for 30 minutes followed by 4-hour reperfusion. […] The chest was opened and the left coronary artery was encircled with a suture and ligated for 30 minutes. Ischemia was verified by regional dysfunction and discoloration of the ischemic zone.
Hearts were excised and the left ventricle was sliced transversely into 6 sections. Slices were incubated for 10 minutes at 37 C in 1% buffered (pH=7.4) 2,3,5-triphenyl tetrazolium-chloride (TTC), fixed in a 10% formaldehyde and photographed in order to identify the AR (uncolored by the blue dye), the IS (unstained by TTC), and the non ischemic zones (colored by blue dye). The area of AR and IS in each slice were determined by planimetry, converted into percentages of the whole for each slice, and multiplied by the weight of the slice. The results were summed to obtain the weight of the myocardial AR and IS (38, 39).

cPLA2 = experiment: Myocardial cPLA2 activity, mouse; format: in vivo; conditions: for cPLA2 activity: mice, 3-day pretreatment, words
Procedure: as §1
(§3) Myocardial samples of the anterior wall of the left ventricle were homogenized in cold PBS (pH 7.4), and centrifuged. The supernatants were collected and stored on ice. Measurement of 6-Keto-PGF1α, the stable metabolite of prostacyclin, 15dPGJ2, 15-epilipoxinA4, and PLA2 activity were made using immunoassay assay kits. The COX activity assay kit measures the peroxidase activity of COX, assayed colorimetrically by monitoring the appearance of oxidized N,N,N″,N″-tetramethyl-p-phenylenediamaine (TMPD) at 590 nm. Each myocardial sample was tested in triplicate (the first without an inhibitor; the second with DuP-697, a specific COX2 inhibitor; and the third with Sc560, a specific COX1 inhibitor. COX1 activity was calculated as the difference between total COX activity in the sample without an inhibitor and the sample with Sc560, and COX2 activity as the difference between total COX activity in the sample without an inhibitor and the sample with DuP-697.

6-keto-PGF1α = experiment: Myocardial 6-keto-PGF1α levels, mouse; format: in vivo
Procedure: as §1
(§4) Myocardial samples of the anterior wall of the left ventricle were homogenized in cold PBS (pH 7.4), and centrifuged. The supernatants were collected and stored on ice. […] Each myocardial sample was tested in triplicate (the first without an inhibitor; the second with DuP-697, a specific COX2 inhibitor; and the third with Sc560, a specific COX1 inhibitor. COX1 activity was calculated as the difference between total COX activity in the sample without an inhibitor and the sample with Sc560, and COX2 activity as the difference between total COX activity in the sample without an inhibitor and the sample with DuP-697.

CREB = experiment: Immunoblotting of myocardial CREB, mouse; format: in vivo; conditions: IR
Procedure: as §1, §2

15dPGJ2 = experiment: Myocardial 15dPGJ2 levels, mouse; format: in vivo
Procedure: as §1, §4

cAMP = experiment: Myocardial cAMP levels, mouse; format: in vivo; conditions: for myocardial cAMP levels: mice, 3-day pretreatment, hearts not subjected to ischemia, words
Procedure: as §1
Myocardial samples from the anterior wall of the left ventricle of hearts that were not subjected to ischemia were homogenize in 1 ml cold extraction buffer [20 mM Tris-HCl (pH7.4), 0.5 mM EDTA, 0.5 mM EGTA, 10 mM β-mercaptoethanol, 1 mM phenylmethylsulfonyl fluoride, 0.1 mM dithiothreitol (DTT), 1 μg/ml leupeptin, 1 μg/ml aprotinin, 0.1% TritonX-100], centrifuged at 14,000×g for 15 min at 4° C., and the supernatants were collected. cAMP levels and PKA activity were measured using assay kits according to the manufacturer's instructions.

COX2 = experiment: Myocardial COX2 activity, mouse; format: in vivo; conditions: for COX2 activity: mice, 3-day pretreatment, words
Procedure: as §1, §3

15-epi-lipoxinA4 = experiment: Myocardial 15-epi-lipoxinA4 levels, mouse; format: in vivo
Procedure: as §1, §3

[2] = system: middle cerebral artery occlusion; conditions: rat; 2 h occlusion, 24 h reperfusion; oral cilostazol 30 mg/kg, aspirin 300 mg/kg, clopidogrel 30 mg/kg; cited from earlier work
[3] = cited from earlier work
[4] = mice, 3-day pretreatment, IR-induced increase, immunoblot, words
[5] = Protocol 1: mice, 3-day pretreatment (SIT 300 mg/kg per day, PIO 5 mg/kg per day), H-89 20 mg/kg i.v. alone
[6] = mice, 3-day pretreatment, words
[7] = H-89 20 mg/kg i.v. after 3-day PIO
[8] = H-89 20 mg/kg i.v. after 3-day SIT
[9] = H-89 20 mg/kg i.v. after 3-day PIO, IR
[10] = H-89 20 mg/kg i.v. after 3-day SIT, IR
[11] = 50 patients, primary stenting for ST elevation acute myocardial infarction, cilostazol 100 mg BID versus aspirin alone

## N[C@@H](CC(=O)N1CCn2c(nnc2C(F)(F)F)C1)Cc1cc(F)c(F)cc1F [SIT, sitagliptin phosphate]
Protein Kinase A (PKA); mice, 3-day pretreatment, hearts not subjected to ischemia, words
  myocardial PKA activity: augmented PKA activity
eNOS; [4]
  Ser-633 P-eNOS levels: augmented this increase
  Ser-1177 P-eNOS levels: augmented this increase
eNOS; mice, 3-day pretreatment, ischemia-reperfusion (IR), immunoblot, words
  total eNOS levels: no effect on total eNOS levels
[1]; [5]
  IS, expressed as a percent of the left ventricle or a percent of the area at risk: significantly smaller
[1]; Protocol 2: mice, 14-day pretreatment (SIT 300 mg/kg per day, PIO 5 mg/kg per day)
  IS, expressed as a percent of the left ventricle or a percent of the area at risk: significantly smaller
cPLA2
  cPLA2 activity: but not SIT, augmented cPLA2 activity
6-keto-PGF1α; [6]
  6-keto-PGF1α levels: no effect
CREB; mice, 3-day pretreatment, immunoblot, words
  total CREB levels: did not affect total CREB levels
CREB; mice, 3-day pretreatment, versus control no IR or control IR, words
  levels of P-CREB: significantly higher
15dPGJ2; [6]
  15dPGJ2 levels: no effect
cAMP
  myocardial cAMP levels: significant increase
COX2
  COX2 activity: no effect on COX2 activity
15-epi-lipoxinA4; [6]
  15-epi-lipoxinA4 levels: significantly increased

## COC(=O)[C@H](c1ccccc1Cl)N1CCc2sccc2C1 [clopidogrel]
[2]
  brain infarct size: but not aspirin (300 mg/kg) or clopidogrel (30 mg/kg) reduced brain infarct size

## O=S(=O)(NCCNC/C=C/c1ccc(Br)cc1)c1cccc2cnccc12 [H-89]
Protein Kinase A (PKA); [7]
  PKA activity: H-89 on the PIO induced increase: completely blocked
Protein Kinase A (PKA); [8]
  PKA activity: H-89 on the SIT induced increase: completely blocked
eNOS; [9]
  Ser-633 P-eNOS levels: H-89 on the effect of PIO: attenuated this increase
  Ser-1177 P-eNOS levels: H-89 on the effect of PIO: attenuated the effects of both SIT and PIO
eNOS; [10]
  Ser-633 P-eNOS levels: H-89 on the effect of SIT: attenuated this increase
  Ser-1177 P-eNOS levels: H-89 on the effect of SIT: attenuated the effects of both SIT and PIO
[1]; [5]
  IS, expressed as a percent of the left ventricle or a percent of the area at risk: no effect on IS
[1]; Protocol 1, H-89 20 mg/kg i.v. one hour before ligation after 3-day PIO
  IS: effect of H-89 on the effect of PIO: only partially blocked the effect of PIO
[1]; Protocol 1, H-89 20 mg/kg i.v. one hour before ligation after 3-day SIT
  IS: effect of H-89 on the effect of SIT: completely blocked the effect of SIT
cPLA2; [7]
  cPLA2 activity: H-89 on the effect of PIO: did not block the effect of PIO
cPLA2; [8]
  cPLA2 activity: H-89 in combination with SIT: no effect on cPLA2 activity
cPLA2
  cPLA2 activity: no effect on cPLA2 activity
6-keto-PGF1α; [7]
  6-keto-PGF1α levels: H-89 on the effect of PIO: did not block the effect of PIO
CREB; [7]
  levels of P-CREB: H-89 on the effect of PIO: blocked this effect of SIT and PIO
CREB; [8]
  levels of P-CREB: H-89 on the effect of SIT: blocked this effect of SIT and PIO
15dPGJ2; [7]
  15dPGJ2 levels: H-89 on the effect of PIO: did not block the effect of PIO
cAMP; [8]
  myocardial cAMP levels: H-89 on the SIT effect: did not block the SIT effect
cAMP
  myocardial cAMP levels: no effect on cAMP levels
COX2; [7]
  COX2 activity: H-89 on the PIO induced increase: did not block the PIO induced increase
COX2; [8]
  COX2 activity: H-89 in combination with SIT: no effect on COX2 activity
COX2
  COX2 activity: no effect on COX2 activity
15-epi-lipoxinA4; [7]
  15-epi-lipoxinA4 levels: H-89 on the effect of PIO: completely blocked the effect of both PIO and SIT
15-epi-lipoxinA4; [8]
  15-epi-lipoxinA4 levels: H-89 on the effect of SIT: completely blocked the effect of both PIO and SIT

## CC(=O)Oc1ccccc1C(=O)O [aspirin]
[2]
  brain infarct size: but not aspirin (300 mg/kg) or clopidogrel (30 mg/kg) reduced brain infarct size
[3]; [11]
  6-month restenosis rate: 20%
  target lesion revascularization: 16%
[3]; 70 patients, Palmaz-Schatz stenting, cilostazol 200 mg/d, aspirin 81 mg/d
  in-stent stenosis: 26.8%
